Results from US20240025906A1 (NEURON23, INC., priority 2022, published 2024).
pIC50, pKd: −log10 of the molar value. Where two headings read alike, the source gives them in different places.

Key:
[1] = system: JAK1/TYK2 pSTAT5 (Tyr694/699) in THP-1 cell line; assay: IFNa-stimulated JAK1/TYK2 pSTAT5 (Tyr694/699) inhibition cellular assay, AlphaLISA; type: cell-based; settings: Homo sapiens, THP-1 cells, AlphaLISA (Assay B)
Procedure, shortened: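 Compound dilutions were dispensed first, and HBSS-suspended THP-1 cells were added on top (final top concentration 10000 nM, 6-fold series). After 1 h at 37 °C, IFNa (100 ng/mL as added) was applied for 30 min. Cells were then lysed and pSTAT5 was quantified by AlphaLISA.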

TYK2 JH2 = molecular target: T1, TYK2 JH2 (Homo sapiens, UniProt P29597); assay: TYK2 JH2 binding assay (KINOMEscan KdELECT competitive binding); settings: TYK2 JH2 domain
T1 construct: purchased DiscoverX (KINOMEscan KdELECT service); host or cells: E. coli BL21-derived (T7 phage display) or HEK-293
Procedure, shortened: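 Competition binding, KdELECT format. Kinase (phage-tagged, E. coli BL21-derived host; or HEK-293, DNA-tagged) + ligand-coated streptavidin beads + cpd, 1 h RT, final DMSO 0.9%. Wash, elute 30 min with 0.5 μM non-biotinylated ligand; qPCR readout. Kd: 11-pt, 3-fold series.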

[2] = IFNa-stimulated, read-out: Cellular_THP1_IFNa-pSTATS_TYK2
[3] = DiscoverX KINOMEscan KdELECT (Assay A), read-out: Biochemical TYK2_DiscoverX_JH2_BND_Kd
[4] = KINOMEscan KdELECT (Assay A), read-out: Biochemical TYK2_DiscoverX_JH2_BND_Kd
[5] = IFNa-stimulated pSTAT5 (Tyr694/699), read-out: Cellular_THP1_IFNa-pSTATS_TYK2
[6] = IFNa-stimulated, read-out: Cellular THP1_IFNa-pSTATS_IC50
[7] = KINOMEscan KdELECT (Assay A), read-out: Biochemical TYK2_JH2_Kd

T1 sequence (P29597 589-875 limits assumed): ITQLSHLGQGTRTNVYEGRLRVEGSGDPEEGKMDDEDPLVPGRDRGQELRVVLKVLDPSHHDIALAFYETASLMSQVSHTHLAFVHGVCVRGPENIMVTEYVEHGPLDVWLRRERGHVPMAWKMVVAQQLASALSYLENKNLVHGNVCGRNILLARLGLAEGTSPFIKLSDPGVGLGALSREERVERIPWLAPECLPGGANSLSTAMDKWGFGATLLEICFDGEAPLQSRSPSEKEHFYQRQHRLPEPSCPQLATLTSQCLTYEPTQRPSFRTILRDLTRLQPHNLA

| SMILES | pIC50 [1, 2] | pKd (TYK2 JH2; [3]) | pKd (TYK2 JH2; [4]) | other results |
| --- | --- | --- | --- | --- |
| CNc1ncc(-c2nc3cc(C4CCCO4)ccc3o2)c2cc(NC(=O)C3CC3)ncc12 (centres unmarked) [Example 343, N-(8-(methylamino)-5-(5-(tetrahydrofuran-2-yl)benzo[d]oxazol-2-yl)-2,7-naphthyridin-3-yl)cyclopropanecarboxamide] | ≥ 6.30 | ≥ 7.00 |  |  |
| CNc1ncc(-c2ccc(COc3ccncc3)cc2)c2cc(NC(=O)C3CC3)ncc12 [Example 868, N-(8-(methylamino)-5-(4-((pyridin-4-yloxy)methyl)phenyl)-2,7-naphthyridin-3-yl)cyclopropanecarboxamide] | ≥ 6.30 |  | ≥ 7.00 |  |
| CNc1ncc(-c2nc3cc(N4C[C@@H](C)O[C@H](C)C4)ccc3o2)c2cc(NC(=O)C3CC3)ncc12 (racemic) [Example 316, N-(5-(5-(2,6-dimethylmorpholino)benzo[d]oxazol-2-y1)-8-(methylamino)-2,7-naphthyridin-3-yl)cyclopropanecarboxamide (trans racemate)] | ≥ 6.30 | ≥ 7.00 |  |  |
| CNc1ncc(-c2nc3cc(OC)ccc3o2)c2cc(NC(=O)[C@H]3C[C@H]3F)ncc12 [Example 387, (1R,2R)-2-fluoro-N-(5-(5-methoxybenzo[d]oxazol-2-y1)-8-(methylamino)-2,7-naphthyridin-3-yl)cyclopropane-1-carboxamide] | ≥ 6.30 | ≥ 7.00 |  |  |
| CNc1ncc(-c2nc3cc(N4CCOCC(C)C4)ccc3o2)c2cc(NC(=O)C3CC3)ncc12 (centres unmarked) [Example 335, N-(5-(5-(6-methyl-1,4-oxazepan-4-yl)benzo[d]oxazol-2-yl)-8-(methylamino)-2,7-naphthyridin-3-yl)cyclopropanecarboxamide] | ≥ 6.30 | ≥ 7.00 |  |  |
| CNc1ncc(C#Cc2cn(C)c(C)n2)c2cc(NC(=O)C3CC3)ncc12 [Example 1003, N-(5-((1,2-dimethyl-1H-imidazol-4-yl)ethynyl)-8-(methylamino)-2,7-naphthyridin-3-yl)cyclopropanecarboxamide] |  |  | ≥ 7.00 | pIC50 [1, 5]: ≥ 6.30 |
| CNc1ncc(-c2nc3cc(OC)ccc3o2)c2cc(NC(=O)[C@H]3C[C@@H]3C(C)(C)O)ncc12 (racemic) [Example 406, 2-(2-hydroxypropan-2-yl)-N-(5-(5-methoxybenzo[d]oxazol-2-yl)-8-(methylamino)-2,7-naphthyridin-3-yl)cyclopropane-1-carboxamide] | ≥ 6.30 | ≥ 7.00 |  |  |
| CNc1ncc(-c2nc3cc(CCC#N)ccc3o2)c2cc(NC(=O)C3CC3)ncc12 [Example 344, N-(5-(5-(2-cyanoethyl)benzo[d]oxazol-2-yl)-8-(methylamino)-2,7-naphthyridin-3-yl)cyclopropanecarboxamide] | ≥ 6.30 | ≥ 7.00 |  |  |
| CNc1ncc(-c2nc3cc(-c4ccn(C)n4)ccc3o2)c2cc(NC(=O)C3CC3)ncc12 [Example 939, N-(5-(5-(1-methyl-1H-pyrazol-3-yl)benzo[d]oxazol-2-yl)-8-(methylamino)-2,7-naphthyridin-3-yl)cyclopropanecarboxamide] | ≥ 6.30 |  | ≥ 7.00 |  |
| CNc1ncc(-c2nc3cc(N4CCCC4)ccc3o2)c2cc(NC(=O)C3CC3)ncc12 [Example 917, N-[8-(methylamino)-5-(5-pyrrolidin-1-yl-1,3-benzoxazol-2-yl)-2,7-naphthyridin-3-yl]cyclopropanecarboxamide] | ≥ 6.30 |  | ≥ 7.00 |  |
| CNc1ncc(-c2cn3cc(OC)ccc3n2)c2cc(NC(=O)C3CC3)ncc12 [Example 879, N-(5-(6-methoxyimidazo[1,2-a]pyridin-2-yl)-8-(methylamino)-2,7-naphthyridin-3-yl)cyclopropanecarboxamide] | ≥ 6.30 |  | ≥ 7.00 |  |
| CNc1ncc(C#Cc2cn3c(n2)CCCC3)c2cc(NC(=O)C3CC3)ncc12 [Example 899, N-(8-(methylamino)-5-((5,6,7,8-tetrahydroimidazo[1,2-a]pyridin-2-yl)ethynyl)-2,7-naphthyridin-3-yl)cyclopropanecarboxamide] | ≥ 6.30 |  | ≥ 7.00 |  |
| CNc1ncc(C#Cc2ccncc2CO)c2cc(NC(=O)C3CC3)ncc12 [Example 669, N-(5-((3-(hydroxymethyl)pyridin-4-yl)ethynyl)-8-(methylamino)-2,7-naphthyridin-3-yl)cyclopropanecarboxamide] | ≥ 6.30 |  | ≥ 7.00 |  |
| [2H]C([2H])([2H])n1nccc1C#Cc1cnc(NC)c2cnc(NC(=O)C3CC3)cc12 [Example 901, N-(5-((1-(methyl-d3)-1H-pyrazol-5-yl)ethynyl)-8-(methylamino)-2,7-naphthyridin-3-yl)cyclopropanecarboxamide] | ≥ 6.30 |  | ≥ 7.00 |  |
| CNc1nc(CO)c(C#Cc2ccc(OC)cn2)c2cc(NC(=O)C3CC3)ncc12 [Example 800, N-(6-(hydroxymethyl)-5-((5-methoxypyridin-2-yl)ethynyl)-8-(methylamino)-2,7-naphthyridin-3-yl)cyclopropanecarboxamide] | ≥ 6.30 |  | ≥ 7.00 |  |
| CNc1ncc(-c2nc3ccc(N4CC(C)(O)C4)cn3n2)c2cc(NC(=O)C3CC3)ncc12 [Example 1037] |  |  | ≥ 7.00 | pIC50 [1, 5]: ≥ 6.30 |
| CNc1ncc(-c2nc3cc(OC)ccc3o2)c2cc(NC(=O)[C@H]3C[C@H]3CF)ncc12 (single isomer, unassigned) [Example 401] | ≥ 6.30 | ≥ 7.00 |  |  |
| CNc1ncc(C2=CCCOC2)c2cc(NC(=O)C3CC3)ncc12 [Example 77, N-(5-(5,6-dihydro-2H-pyran-3-yl)-8-(methylamino)-2,7-naphthyridin-3-yl)cyclopropanecarboxamide] |  |  |  | pIC50 [1, 6]: < 6.30; pKd (TYK2 JH2; [7]): ≥ 7.00 |
| CNc1ncc(-c2ccccc2)c2cc(Nc3ccccn3)ncc12 [Example 92, N^1-methyl-4-phenyl-N^6-(pyridin-2-yl)-2,7-naphthyridine-1,6-diamine] |  |  |  | pIC50 [1, 6]: < 6.30; pKd (TYK2 JH2; [7]): ≥ 7.00 |
| CNc1ncc(-c2c(C)cnn2C2CCCCO2)c2cc(NC(=O)C3CC3)ncc12 (centres unmarked) [Example 39, N-(5-(4-methyl-1-(tetrahydro-2H-pyran-2-yl)-1H-pyrazol-5-yl)-8-(methylamino)-2,7-naphthyridin-3-yl)cyclopropanecarboxamide] |  |  |  | pIC50 [1, 6]: < 6.30; pKd (TYK2 JH2; [7]): 5.00 to 6.00 |
| CNc1ncc(C#Cc2ccc3c(c2)CC[C@H](COC)O3)c2cc(NC(=O)C3CC3)ncc12 (single isomer, unassigned) [Example 988] | ≥ 6.30 |  | ≥ 7.00 |  |
| CNc1ncc(-c2nc3cc(N4CCO[C@@H](C(F)F)C4)ccc3o2)c2cc(NC(=O)[C@H]3C[C@H]3C)ncc12 [Example 1059] |  |  | ≥ 7.00 | pIC50 [1, 5]: ≥ 6.30 |
| CNc1ncc(C#Cc2ccc(OCC3COC3)cn2)c2cc(NC(=O)C3CC3)ncc12 [Example 678, N-(8-(methylamino)-5-((5-(oxetan-3-ylmethoxy)pyridin-2-yl)ethynyl)-2,7-naphthyridin-3-yl)cyclopropanecarboxamide] | ≥ 6.30 |  | ≥ 7.00 |  |
| CNc1ncc(-c2nc3cc(OC)ccc3o2)c2cc(Nc3ccc(OC)cn3)ncc12 [Example 378, 4-(5-methoxybenzo[d]oxazol-2-yl)-N^6-(5-methoxypyridin-2-yl)-N^1-methyl-2,7-naphthyridine-1,6-diamine] | ≥ 6.30 | ≥ 7.00 |  |  |
| CCn1ncc(C#Cc2cnc(NC)c3cnc(NC(=O)C4CC4)cc23)n1 [Example 805, N-(5-((2-ethyl-2H-1,2,3-triazol-4-yl)ethynyl)-8-(methylamino)-2,7-naphthyridin-3-yl)cyclopropanecarboxamide] | ≥ 6.30 |  | ≥ 7.00 |  |
